The text below walks through data of PubChem BioAssay (NCI).

Test systems include SK-OV-3 ovarian; NCI-H226 lung; NCI-H522 lung; LOX IMVI melanoma; DMS 273 small cell lung; UO-31 renal; UACC-257 melanoma; SK-MEL-5 melanoma; LXFL 529 NSCLC; CAKI-1 renal.
Holding throughout (test): DTP human tumour cell line panel, 48 h

Molecules are shown by their SMILES.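 Method: 48-hour compound exposure of cells in 96-well plates, five concentrations, linear interpolation of endpoints. Here, GI50 denotes the concentration required for 50% inhibition of growth. Definition used: TGI = concentration required for complete inhibition of growth.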 Some results are limits rather than exact numbers.

In general, TGI refers to the concentration giving total growth inhibition. A higher TGI goes with less potent growth arrest. For orientation: GI50 means the concentration giving 50% growth inhibition.

Take `C[C@@H](NC1CCCC[C@H]1O)c1ccccc1` (stereo partly drawn): the TGI in the assay with SK-OV-3 ovarian, in the assay on NCI-H226 lung, with NCI-H522 lung, in the assay with LOX IMVI melanoma, with DMS 273 small cell lung and with UO-31 renal was more than 100 µM throughout. In addition, the TGI with UACC-257 melanoma and with SK-MEL-5 melanoma was more than 100 µM throughout.
As for `Cn1cc(C(=O)c2ccccc2)c2ccccc2c1=O`, the TGI in the assay on SK-OV-3 ovarian, in the assay with NCI-H522 lung, with LOX IMVI melanoma, in the assay with DMS 273 small cell lung, in the assay with UACC-257 melanoma and in the assay on SK-MEL-5 melanoma was more than 100 µM in each case. Moreover, the TGI with LXFL 529 NSCLC and in the assay on CAKI-1 renal was more than 100 µM each time.
Regarding `COc1ccc(C/C(=N/O)C(=O)NCCc2cc(Br)c(OCCCN(C)C)c(Br)c2)cc1Br`, the TGI in the assay on NCI-H522 lung amounted to 31.5 µM; in the assay with LOX IMVI melanoma, 30.1 µM; in the assay with DMS 273 small cell lung, 7.61 µM; with UO-31 renal it was 42.3 µM; in the assay with UACC-257 melanoma it was 30.6 µM; with LXFL 529 NSCLC, 29.7 µM. Moreover, the TGI in the assay on CAKI-1 renal stood at 69.4 µM.
Consider `CN(C)C=Nc1ccn(CCO)c(=O)n1`, for which the TGI in the assay with SK-OV-3 ovarian, in the assay with NCI-H226 lung, with NCI-H522 lung, in the assay with LOX IMVI melanoma, with DMS 273 small cell lung and in the assay with UO-31 renal was more than 100 µM each time. Moreover, the TGI in the assay with UACC-257 melanoma, in the assay on SK-MEL-5 melanoma and in the assay with LXFL 529 NSCLC was more than 100 µM throughout.
Turning to `Cc1cn(C2CC(O)C(COC(=O)c3ccccc3)O2)c(=O)[nH]c1=O` (stereo not drawn), the TGI with NCI-H522 lung, in the assay on LOX IMVI melanoma, in the assay on DMS 273 small cell lung, with UACC-257 melanoma, in the assay with SK-MEL-5 melanoma and with LXFL 529 NSCLC was more than 100 µM each time. In the assay on CAKI-1 renal, this compound had a TGI of more than 100 µM.
As for `Cc1c(Cl)cccc1NC(=O)C(=O)C(C(=O)c1ccccc1-c1ccccc1)C1OC(=O)c2ccccc21` (stereo not drawn), the TGI in the assay with SK-OV-3 ovarian is more than 100 µM; in the assay on NCI-H226 lung it was 18.1 µM; in the assay with NCI-H522 lung it was 26.4 µM; in the assay on LOX IMVI melanoma, 39.5 µM; in the assay with DMS 273 small cell lung, 77 µM; in the assay on UO-31 renal it was 49.4 µM. The results for the TGI in the assay with UACC-257 melanoma, with SK-MEL-5 melanoma and in the assay with LXFL 529 NSCLC were 46.8 µM, 29.9 µM and 27.9 µM, respectively.
With `N.N.N.N.N.[Co+3].[I-].[N-]=[N+]=[N-]`, the GI50 in the assay with SK-OV-3 ovarian, in the assay with NCI-H522 lung, in the assay with LOX IMVI melanoma, in the assay with DMS 273 small cell lung, with UO-31 renal and with UACC-257 melanoma was more than 100 µM throughout. Besides, the GI50 in the assay with SK-MEL-5 melanoma and with LXFL 529 NSCLC was more than 100 µM in each case. Further, the TGI in the assay on SK-OV-3 ovarian, with NCI-H522 lung, with LOX IMVI melanoma, in the assay on DMS 273 small cell lung, with UO-31 renal and with UACC-257 melanoma was more than 100 µM in each case. The TGI in the assay with SK-MEL-5 melanoma and in the assay with LXFL 529 NSCLC was more than 100 µM each time.
For `O=C1C2Nc3ccccc3SC2C(=O)N1c1ccc(Br)cc1` (stereo not drawn), the TGI with SK-OV-3 ovarian was 61.1 µM; with NCI-H226 lung it was 92.4 µM; with NCI-H522 lung, 89.8 µM; in the assay on LOX IMVI melanoma, more than 100 µM; in the assay on DMS 273 small cell lung, more than 100 µM; in the assay with UO-31 renal it was 68.2 µM. Also, the TGI in the assay with UACC-257 melanoma is more than 100 µM; in the assay with SK-MEL-5 melanoma, 55.3 µM; in the assay on LXFL 529 NSCLC, 82.1 µM.
Consider `O=S(=O)(NCCCNc1nccc(-c2c(-c3ccc(O)cc3)nc3sccn23)n1)c1ccc(F)cc1`, for which the GI50 in the assay on SK-OV-3 ovarian was 2.12 µM; with NCI-H226 lung, 2.15 µM; in the assay on NCI-H522 lung, 1.83 µM; with LOX IMVI melanoma, 0.567 µM; with UO-31 renal it was 2.33 µM; with UACC-257 melanoma it was 0.134 µM. Besides, the GI50 in the assay on SK-MEL-5 melanoma is 1.21 µM; in the assay with CAKI-1 renal, 2.88 µM. In addition, the TGI in the assay with SK-OV-3 ovarian stood at 8.88 µM; in the assay with NCI-H226 lung it was 10.1 µM; in the assay on NCI-H522 lung it was 6.27 µM; in the assay on LOX IMVI melanoma, 5.44 µM; in the assay on UO-31 renal it was 7.3 µM; in the assay on UACC-257 melanoma, 2.36 µM. For the same compound, the TGI is 2.67 µM in the assay with SK-MEL-5 melanoma and more than 100 µM with CAKI-1 renal.
`Cn1c2c(c3ccccc31)CCN(CCCCN1CCCCC1)C2=O`: the TGI in the assay on SK-OV-3 ovarian, in the assay on NCI-H522 lung, with DMS 273 small cell lung, with UO-31 renal, in the assay with UACC-257 melanoma and with SK-MEL-5 melanoma was more than 100 µM each time. Further, the TGI with LXFL 529 NSCLC and in the assay with CAKI-1 renal was more than 100 µM in each case.
Take `Cc1cc(S(=O)(=O)Nc2nc3ccccc3o2)c(SCc2ccccc2)cc1Cl`: the GI50 with SK-OV-3 ovarian was 34.3 µM; in the assay on NCI-H226 lung, 26.4 µM; in the assay on NCI-H522 lung, more than 100 µM; in the assay with LOX IMVI melanoma it was 14.9 µM; in the assay with UO-31 renal, 32.9 µM; in the assay on UACC-257 melanoma it was 21.2 µM. Further, the GI50 was 16.7 µM in the assay with SK-MEL-5 melanoma and 19.6 µM in the assay with CAKI-1 renal. In addition, the TGI in the assay with SK-OV-3 ovarian was more than 100 µM; in the assay on NCI-H226 lung, 72.9 µM; in the assay with NCI-H522 lung, more than 100 µM; in the assay on LOX IMVI melanoma, 34.8 µM; in the assay on UO-31 renal, more than 100 µM; in the assay on UACC-257 melanoma, 50.2 µM. Further, the TGI in the assay on SK-MEL-5 melanoma turned out to be 33.4 µM; with CAKI-1 renal, 47.3 µM.
